Patent US20260250320A1, “LIPIDATED PEPTIDE INHIBITORS OF INTERLEUKIN-23 RECEPTOR” (Janssen Pharmaceutica NV, priority 2023, published 2026)
*1 amine or outer side, *2 acyl side, *3 side chain or, on linkers, in order; H or OH if unused. Where a SMILES comes first, the peptide text is derived from it. Bridges are numbered along the chain shown (N, C = ends). Side-chain parts run from the residue outwards. [ ]: non-standard residue; d: D form. The star is where a group is joined. X29 = C[C@H](CCCCNC(=O)COCCOCCNC(=O)COCCOCCNC(=O)CC[C@H](NC(=O)CCCCCCCCCCCCCCCCC(=O)O)C(=O)O)C(=O)C[C@H](C(=O)[*:1])C(C)(C)S[*:2]; CH2CH2OCH2CH2OCH2CH2NMe3+ = C[N+](C)(C)CCOCCOCC*; NH(CH2CH2O)2CH2CH2NMe3+ = C[N+](C)(C)CCOCCOCCN*; Trp(7-Me) = Cc1cccc2c(C[C@H](N)C(=O)O)c[nH]c12; C18 diacid = O=C(O)CCCCCCCCCCCCCCCCC(=O)*; γGlu = O=C(O)[C@H](CCC(=O)[*:2])N[*:1]; 2Nal = N[C@@H](Cc1ccc2ccccc2c1)C(=O)O; AEF = NCCOc1ccc(C[C@H](N)C(=O)O)cc1; X2 = C[N+](C)(C)C[C@@H](CC(=O)O)N*; 3Pal = N[C@@H](Cc1cccnc1)C(=O)O; Lys(Me) = CNCCCC[C@H](N)C(=O)O; Pen = CC(C)(S)[C@H](N)C(=O)O; Suc = O=C(CCC(=O)[*:2])[*:1]; Thp = NC1(C(=O)O)CCOCC1; AEEA = NCCOCCOCC(=O)O; Sar = CNCC(=O)O

Columns and labels:
[1] = molecular target: T1, IL-23R (Homo sapiens, UniProt Q5VWK5); assay: IL23R Reporter Assay; assay type: cell-based; details: HEK293 cells containing IL-23R, IL-12Rβ1 and STAT-inducible firefly luciferase reporter; 10 ng/mL IL-23 (EC90); 5 h
T1 construct: HEK293 cells containing IL-23R, IL-12Rβ1 and a firefly luciferase reporter gene driven by a STAT-inducible promoter (Promega); host or cells: HEK293
T1 sequence (Q5VWK5 24-629): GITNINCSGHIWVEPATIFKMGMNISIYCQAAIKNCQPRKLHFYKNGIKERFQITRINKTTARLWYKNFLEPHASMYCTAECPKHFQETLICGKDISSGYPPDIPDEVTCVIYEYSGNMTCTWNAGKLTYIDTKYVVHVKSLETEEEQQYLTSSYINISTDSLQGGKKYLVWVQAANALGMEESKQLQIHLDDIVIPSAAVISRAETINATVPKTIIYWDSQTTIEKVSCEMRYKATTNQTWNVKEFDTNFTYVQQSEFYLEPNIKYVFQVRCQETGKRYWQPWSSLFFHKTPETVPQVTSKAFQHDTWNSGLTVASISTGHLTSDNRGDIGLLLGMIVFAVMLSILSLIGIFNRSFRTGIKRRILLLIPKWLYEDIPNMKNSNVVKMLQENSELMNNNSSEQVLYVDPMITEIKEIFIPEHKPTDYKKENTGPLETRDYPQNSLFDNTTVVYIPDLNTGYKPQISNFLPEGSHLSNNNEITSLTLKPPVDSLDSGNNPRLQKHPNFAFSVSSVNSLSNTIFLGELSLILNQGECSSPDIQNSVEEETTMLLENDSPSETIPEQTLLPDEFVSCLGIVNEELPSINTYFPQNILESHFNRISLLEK
Experimental: Compounds were serially diluted in 100% (v/v) DMSO) and plated using an Echo acoustic dispenser (Labcyte) into 1536-well non-treated black assay plates (Corning #9146). 3 μL of HEK293 cells containing IL-23R, IL-12Rβ1 and a firefly luciferase reporter gene driven by a STAT-inducible promoter (Promega) were added to the plates (4000 cells/well), followed by 3 μL of 10 ng/mL IL-23 (equivalent to EC90 concentration). After 5 h at 37° C., 5% CO2, 95% relative humidity, cells were placed at 20° C. and treated with BioGlo reagent (Promega) according to the Manufacturer's instructions. Luminescence was measured on a Pherastar FSX (BMG LabTech). Data were normalized to IL-23 treatment (0% inhibition) and 30 μM of control inhibitor (100% inhibition), and IC50 values were determined using a 4-parameter Hill equation.

[2] = test system: IL-23-stimulated phosphorylated STAT3 in peripheral blood mononuclear cells (PBMCs); assay: PBMC pSTAT3 Assay; assay type: cell-based; details: PBMCs from healthy donors; 30 min preincubation with peptide; IL-23 5 ng/mL for 30 min; phospho-STAT3 by MSD
Experimental: Cryopreserved peripheral blood mononuclear cells (PBMCs) from healthy donors were thawed and washed twice in ImmunoCult-XF T cell expansion medium (XF-TCEM) supplemented with CTL anti-aggregate wash. The cells were counted, resuspended at 2-6×10^5 cells per mL XF-TCEM supplemented with penicillin/streptomycin and 100 ng/mL […] (BioLegend, 579404), and cultured in tissue culture flasks coated with anti-CD3 (eBioscience, 16-0037-85 or BD Pharmingen, 555329) at 37° C. in 5% CO2. On day 4 of culture, PBMCs were collected, washed twice in RPMI-1640 supplemented with 0.1% BSA (RPMI-BSA), and incubated in RPMI-BSA in upright tissue culture flasks for ~4 hours at 37° C. in 5% CO2. Following this 'starvation,' a total of 6×10^4 cells in 30 μL RPMI-BSA was transferred into each well of a 384-well plate pre-spotted with peptide or DMSO. The cells were incubated for 30 minutes prior to the addition of […] at a final concentration of 5 ng/mL. The cells were stimulated with cytokine for 30 minutes at 37° C. in 5% CO2, transferred onto ice for 10 minutes, and lysed. Cell lysates were stored at -80° C. until phosphorylated STAT3 was measured using the phospho-STAT panel kit (Meso Scale Discovery, […]). Results are provided below. • A: IC50<0.5 nM; • B: 0.5 nM≤IC50<5 nM; • C: 5 nM≤IC50; • ND: Not determined

SMILES | IC50 [1] | IC50 [2]
CC(=O)N(C)CCCC[C@@H]1NC(=O)[C@H](Cc2c[nH]c3c(C)cccc23)NC(=O)[C@H]([C@@H](C)O)NC(=O)[C@H](CC(=O)N(C)C)NC(=O)[C@@H](CC(=O)[C@H](C)CCCCNC(=O)COCCOCCNC(=O)COCCOCCNC(=O)CC[C@H](NC(=O)CCCCCCCCCCCCCCCCC(=O)O)C(=O)O)C(C)(C)SSC(C)(C)[C@@H](C(=O)N[C@@H](Cc2ccc(OCCOCCOCC[N+](C)(C)C)cc2)C(=O)N[C@@H](Cc2ccc3ccccc3c2)C(=O)NC2(C(=O)N[C@@H](CCCCN(C)C(C)=O)C(=O)N[C@@H](CC(N)=O)C(=O)N[C@@H](Cc3cccnc3)C(=O)N(C)CC(=O)N(C)C)CCOCC2)NC1=O [compound 159, cPEG3aCO-k(PEG2PEG2gEC18OH)-Pen(3)-N(N(Me)2)-T-7MeW-K(NMeAc)-Pen(3)-APEG3F-2Nal-THP-K(NMeAc)-N-3Pya-Sar-CON(Me)2] (D(NMe2)T[Trp(7-Me)][Lys(Me)](Ac)[Pen]Y(CH2CH2OCH2CH2OCH2CH2NMe3+)[2Nal][Thp][Lys(Me)](Ac)N[3Pal][Sar]-NMe2; linker N-5 via X29) | < 50 nM | < 0.5 nM
CC(=O)NCCCC[C@@H]1NC(=O)[C@H](Cc2c[nH]c3c(C)cccc23)NC(=O)[C@H]([C@@H](C)O)NC(=O)[C@H](CC(N)=O)NC(=O)[C@@H](NC(=O)COCCOCCNC(=O)COCCOCCNC(=O)CC[C@H](NC(=O)CCCCCCCCCCCCCCCCC(=O)O)C(=O)O)C(C)(C)SSC(C)(C)[C@@H](C(=O)N[C@@H](Cc2ccc(OCCN)cc2)C(=O)N[C@@H](Cc2ccc3ccccc3c2)C(=O)NC2(C(=O)N[C@@H](CCCCNC(=O)CCC(=O)N[C@H](CC(=O)O)C[N+](C)(C)C)C(=O)N[C@@H](CC(N)=O)C(O)N[C@@H](Cc3cccnc3)C(=O)N(C)CC(N)=O)CCOCC2)NC1=O (stereo partly drawn) [compound 44, HOC18gEPEG2PEG2CO-Pen(3)-N-T-7MeW-K(Ac)-Pen(3)-AEF-2Nal-THP-K(d)-N-3Pya-Sar-CONH2] | < 50 nM | < 0.5 nM
CC(=O)NCCCC[C@@H]1NC(=O)[C@H](Cc2c[nH]c3c(C)cccc23)NC(=O)[C@H]([C@@H](C)O)NC(=O)[C@H](CCCCNC(=O)COCCOCCNC(=O)COCCOCCNC(=O)CC[C@H](NC(=O)CCCCCCCCCCCCCCCCC(=O)O)C(=O)O)NC(=O)[C@@H](NC(C)=O)C(C)(C)SSC(C)(C)[C@@H](C(=O)N[C@@H](Cc2ccc(OCCN)cc2)C(=O)N[C@@H](Cc2ccc3ccccc3c2)C(=O)NC2(C(=O)N[C@@H](CCCCNC(=O)CCC(=O)N[C@H](CC(=O)O)C[N+](C)(C)C)C(=O)N[C@@H](CC(N)=O)C(=O)N[C@@H](Cc3cccnc3)C(=O)N(C)CC(N)=O)CCOCC2)NC1=O [compound 15, MeCO-r-Pen(3)-N-T-7MeW-K(PEG2PEG2gEC18OH)-Pen(3)-AEF-2Nal-THP-K(d)-N-3Pya-Sar-CONH2] (Ac-[Pen]K([AEEA-AEEA-γGlu-C18 diacid])T[Trp(7-Me)]K(Ac)[Pen][AEF][2Nal][Thp]K([Suc-X2])N[3Pal][Sar]-NH2; disulfide 1-6) | 50 to 500 nM | 0.5 to 5 nM
CC(=O)NCCCC[C@@H]1NC(=O)[C@H](Cc2c[nH]c3c(C)cccc23)NC(=O)[C@H]([C@@H](C)O)NC(=O)[C@H](CC(N)=O)NC(=O)[C@@H](NC(=O)[C@@H](CCCNC(=N)N)NC(C)=O)C(C)(C)SSC(C)(C)[C@@H](C(=O)N[C@@H](Cc2ccc(OCCN)cc2)C(=O)N[C@@H](Cc2ccc3ccccc3c2)C(=O)NC2(C(=O)N[C@@H](CCC(=O)O)C(=O)N[C@@H](CC(N)=O)C(=O)N[C@@H](Cc3cccnc3)C(=O)N(C)CC(=O)N[C@@H](CCCCNC(=O)COCCOCCNC(=O)COCCOCCNC(=O)CC[C@H](NC(=O)CCCCCCCCCCCCCCCCC(=O)O)C(=O)O)C(=O)NCCOCCOCC[N+](C)(C)C)CCOCC2)NC1=O [compound 40, MeCO-r-Pen(3)-N-T-7MeW-K(Ac)-Pen(3)-AEF-2Nal-THP-E-N-3Pya-Sar-K(PEG2PEG2gEC18OH)-CONH(PEG3a)] (Ac-[dR][Pen]NT[Trp(7-Me)]K(Ac)[Pen][AEF][2Nal][Thp]EN[3Pal][Sar]K([AEEA-AEEA-γGlu-C18 diacid])-{NH(CH2CH2O)2CH2CH2NMe3+}; disulfide 2-7) |  | 0.5 to 5 nM
